Data: US12178908B2, “Tolerogenic liposomes and methods of use thereof” (AnTolRx, Inc., priority 2018, dated 2024)
Converted amounts (≈) assume the structure as drawn. Where two headings read alike, the source gives them in different places.

Experiments:
[1] = Solubility of ITE in conventional solvents; type: physicochemical
Excerpt: 2-(1H-Indol-3-ylcarbonyl)-4-thiazolecarboxylic acid methyl ester (ITE) is a potent aryl hydrocarbon receptor agonist which is difficult to formulate in nanoparticulate form (including gold and PLGA nanoparticles and many conventional liposomal compositions, for example). […] ITE is also highly prone to self-aggregation.

[2] = tested on: EAE; details: cited from earlier work
[3] = type: physicochemical
Method: A stability assessment was performed in which liposomes from batch 1 were stored in HBS for one month at 4° C. and re-assayed.
• Lipid ratios were varied in the following range for each lipid: • Egg PC or HEPC: ˜53-72 mol % • Cholesterol: ˜25-44 mol % • PEG2000-PE: 1.5 to 6.25 mol % ITE was fixed at 0.5% by weight to the total lipid mass for all the batches tested. ITE was added from a DMSO stock. Batches were observed daily for any signs of precipitation/aggregation

[4] = tested on: splenocytes of 2D2 mice; assay: Proliferation of 2D2 splenocytes stimulated in vitro (Cell Titer Blue); type: cell-based; details: 10 μg MOG; 1 μg ITE; 72 hours at 37° C.
Method: Splenocytes were harvested from 2D2 mice, which express a transgenic 2D2 T cell […] (TCR) specific for MOG35-55 and stimulated in vitro with 10 μg of MOG delivered either freely (Free MOG), loaded in egg-PC liposomes alone (MOG-L) or loaded in egg-PC liposomes and additionally stimulated with ITE-loaded egg-PC liposomes (at a dose of 1 μg ITE). Cell proliferation was assessed after incubation at 37° C. for 72 hours using a Cell Titer Blue cell proliferation assay.

COC(=O)c1csc(C(=O)c2c[nH]c3ccccc23)n1 [ITE, 2-(1H-Indol-3-ylcarbonyl)-4-thiazolecarboxylic acid methyl ester]
solubility ([1]; ethanol, organic solvent or mixture): ~3300 µM (≈ 945 µg/mL) | solubility ([1]; methanol, organic solvent or mixture): ~3000 µM (≈ 859 µg/mL) | solubility ([1]; water): ~115 µM (≈ 32.9 µg/mL) | EAE amelioration ([2]; daily 200 μg per mouse, i.p. or orally, Quintana et al. PNAS 2010): ameliorated

Clc1cc2c(cc1Cl)Oc1cc(Cl)c(Cl)cc1O2 [TCDD, 2,3,7,8-tetrachlorodibenzo-p-dioxin]
potency relative to ITE in most in vivo studies ([2]; TCDD vs ITE): ~1,000 fold | EAE amelioration ([2]; dose of 100 ng, Quintana et al. Nature 2008): not | EAE amelioration ([2]; dose of 1 μg, Quintana et al. Nature 2008): ameliorated EAE

DMPC
stability (observation) [3]: in liposome, not stable

Free MOG: MOG35-55 peptide MEVGWYRSPFSRVVHLYRNGK (SEQ ID NO: 82) delivered freely
2D2 cell proliferation [4]: induced 2D2 cell proliferation
